Reference: patent publication US20050025830A1, “Drug delivery device comprising an active compound and method for releasing an active compound from a drug delivery device” (Technische Universiteit Eindhoven, priority 2003, published 2005)

How the values were obtained:
[1] = Release of active compound from pressed polymer disc into physiological buffer in shaking bath at 20° C. and 50° C.; assay type: physicochemical; conditions: p(BMA-MMA) disc with 75 mol % pBMA, ibuprofen 5% (m/m)
[2] = Ultrasound-induced release of ibuprofen from polymer disc into physiological buffer; assay type: physicochemical; conditions: PLAGA 50/50 disc, ibuprofen 10% (m/m)
Description: An object consisting of a pressed circular disc with a diameter of 2 cm and thickness of 2 mm was provided with a thermocouple in the middle and was then placed in a holder in a vessel containing 0.5 litre physiological buffer. […] The PLAGA was purchased from Purac Biochem, The Netherlands. The glass transition temperature of the matrix of poly(lactic acid-co-glycolic acid) used was 12.7° C. (as compared to Example 1 where a Tg of 43° C. is disclosed. This decrease of the Tg is the result of a higher loading of ibuprofen). The disc was irradiated perpendicularly to the surface with a beam of ultrasonic sound with a power of 4 W and a frequency of 10^6 Hz (1 MHz), the probe for generating the ultrasound being 28 mm away from the disc. The speed of the release of ibuprofen into the physiological buffer was determined as a function of time. Both the temperature of the buffer and the temperature in the disc were measured continuously. The irradiation with ultrasonic sound was applied in an alternating manner, periods of irradiation of 120 minutes being alternated with periods of 60 minutes without irradiation.

[3] = Concentration of ibuprofen in blood after subcutaneous implantation of disc and alternating ultrasound irradiation; assay type: in vivo; conditions: p(BMA-MMA) disc, ibuprofen 3% (m/m), Lewis rat
Text: A pressed circular disc of p(BMA-MMA) with ibuprofen incorporated in the matrix with a mass ratio of 3% (m/m), as described in example 1, was implanted subcutaneously in a Lewis rat. On both sides of the disc a thermocouple was implanted to continuously measure the temperature at the surface of the disc. One hour after implantation the disc was irradiated perpendicularly to the surface with a beam of ultrasonic sound with a power of 0.7 W, a frequency of 10^6 Hz (1 MHz), and a duty cycle of 70%, the probe for generating the ultrasound touching the skin of the rat. A standard physiotherapeutic hydrogel was used in between the skin and the probe. The irradiation with ultrasonic sound was applied in an alternating manner, periods of irradiation of 30 minutes being alternated with periods of 30 minutes without irradiation.
Blood samples were taken each 10 minutes during irradiation and each 20 minutes in the periods without irradiation to determine concentration of ibuprofen in the blood stream as a function of time. After 30 minutes irradiation the concentration of ibuprofen was 0.9 μg/ml, after irradiation the plasma concentration went below 0.01 μg/ml.

CC(C)Cc1ccc(C(C)C(=O)O)cc1 (stereo not drawn) [ibuprofen]
release rate of ibuprofen into the physiological buffer ([1]; 20° C.): 0.36 nmol/h | release rate of ibuprofen into the physiological buffer ([1]; 50° C.): 10 nmol/h | release of ibuprofen after stopping the irradiation [2]: fell virtually immediately to the base value | speed of release of ibuprofen from the disc ([2]; without irradiation (base value), 8° C.): less than 1×10^−7 gram/minute | plasma concentration of ibuprofen ([3]; after irradiation (period without irradiation)): below 0.01 μg/ml | concentration at 30 min ([3]; blood, sc, after 30 minutes irradiation (0.7 W, 1 MHz, duty cycle 70%), read-out: concentration of ibuprofen in the blood stream): 900 ng/mL
